Experiments:
[1] = target: T1, p38α (Homo sapiens, UniProt Q16539); test: p38 kinase assay, p38-α with peptide substrate (Caliper LabChip); assay type: biochemical
T1 construct: purchased Millipore
Method: Alternatively, p38 kinase assays were performed in a reaction volume of 70 μL in a 384-well plate, at 30° for […] under the following conditions: 50 mM Hepes, pH 7.4, 10 mM MgCl2, 1 mg/ml FA Free BSA, 1 mM DTT, 10 μM ATP, 10 μM p38 peptide [Caliper Life Sciences FL-Peptide 8 (5-FAM-IPTSPITTTYFFFKKK-COOH)] and 5.7 nM p38-α (Millipore), or 14.3 nM unactivated MAPKAP kinase-2, 0.18 nM p38-α (Millipore) and 2 uM RSK peptide [Caliper Life Sciences FL-Peptide 11 (5-FAM-KKLNRTLSVA-COOH)]. Serial dilutions of compounds were added to each reaction in 700 nL DMSO. 700 nL of DMSO was added to the control wells of the reaction plate as the no inhibitor control for each inhibitor titration. The reaction was terminated by the addition of 15 μL of a 100 mM EDTA. Product formation was analyzed using the Caliper LabChip 3000. The Separation buffer contained 100 mM HEPES pH 7.5, 0.015% Brij-35, 2.5% Coating Reagent #3 (Caliper Life Sciences) and 10 mM EDTA. Calculation of the substrate product ratios are performed using the HTS Well Analyzer software provided by Caliper Life Sciences and the percent inhibition at each compound concentration is determined.

[2] = tested on: TNF-α; test: IC50 hWB (TNF-α release assay); assay type: cell-based; conditions: Homo sapiens
Method: Blood was obtained from healthy volunteers by venipuncture using sodium heparin as an anti-coagulant. Peripheral blood mononuclear cells (PBMCs) were isolated using Lymphocyte Separation Medium (ICN) according to manufacturers specifications. Isolated PBMCs were washed 3 times with FIBSS and diluted to a density of 2×10^6 cells/mL in RPMI+5% autologous human serum. 50 μL of the serial dilutions of inhibitor were added to wells of a 96-well tissue culture plate followed by addition of 100 μL of PBMCs and then 50 μL of RPMI complete medium containing 400 ng/mL LPS. A control well of cells without compound but with LPS (maximal stimulation control) and one without compound and without LPS (background control) were included in each titration. The cells were incubated for 16 hours in a humidified incubator at 37° C., 5% CO2. Supernatants were then harvested and TNF-α levels were quantified by immunoassay using commercial reagents (R&D, Inc).

T1 sequence (Q16539 whole entry): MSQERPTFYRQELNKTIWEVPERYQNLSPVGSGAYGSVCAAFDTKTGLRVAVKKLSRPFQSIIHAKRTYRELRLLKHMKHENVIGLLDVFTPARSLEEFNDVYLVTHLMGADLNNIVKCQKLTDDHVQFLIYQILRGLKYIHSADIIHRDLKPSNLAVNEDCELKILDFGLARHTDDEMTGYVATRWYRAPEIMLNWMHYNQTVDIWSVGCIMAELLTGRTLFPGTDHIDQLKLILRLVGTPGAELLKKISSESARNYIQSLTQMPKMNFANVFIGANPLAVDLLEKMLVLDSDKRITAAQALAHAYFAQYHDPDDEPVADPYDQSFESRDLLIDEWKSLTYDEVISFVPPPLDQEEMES

Row | IC50 [1] [µM] | IC50 [2] [µM] | SMILES
1 | 0.045 | 0.461 | O=C(c1c(F)cc(F)cc1F)c1c[nH]c2c(=O)n(Cc3nc4ccccc4[nH]3)ccc12 [Example 1, 6-(1H-benzimidazol-2-ylmethyl)-3-(2,4,6-trifluorobenzoyl)-1,6-dihydro-7H-pyrrolo[2,3-c]pyridin-7-one]
2 | 0.027 | 0.128 | O=C(c1c(F)cc(F)cc1F)c1c[nH]c2c(=O)n(Cc3nc4cccc(F)c4[nH]3)ccc12 [Example 2, 6-[(4-fluoro-1H-benzimidazol-2-yl)methyl]-3-(2,4,6-trifluorobenzoyl)-1,6-dihydro-7H-pyrrolo[2,3-c]pyridin-7-one]
3 | 0.023 | 0.128 | O=C(c1c(F)cc(F)cc1F)c1c[nH]c2c(=O)n(Cc3nc4ccc(F)c(F)c4[nH]3)ccc12 [Example 3, 6-[(4,5-difluoro-1H-benzimidazol-2-yl)methyl]-3-(2,4,6-trifluorobenzoyl)-1,6-dihydro-7H-pyrrolo[2,3-c]pyridin-7-one]
4 | 0.0053 | 0.088 | O=C(c1c(F)cc(F)cc1F)c1c[nH]c2c(=O)n(Cc3cn4cccnc4n3)ccc12 [Example 5, 6-(imidazo[1,2-a]pyrimidin-2-ylmethyl)-3-(2,4,6-trifluorobenzoyl)-1,6-dihydro-7H-pyrrolo[2,3-c]pyridin-7-one]
5 | 0.018 | 0.084 | O=C(c1c(F)cc(F)cc1F)c1c[nH]c2c(=O)n(Cc3nc4cccnc4[nH]3)ccc12 [Example 6, 6-(3H-imidazo[4,5-b]pyridin-2-ylmethyl)-3-(2,4,6-trifluorobenzoyl)-1,6-dihydro-7H-pyrrolo[2,3-c]pyridin-7-one]
6 | 0.038 | 0.248 | O=C(c1c(F)cccc1F)c1c[nH]c2c(=O)n(Cc3nc4cccnc4[nH]3)ccc12 [Example 7, 3-(2,6-difluorobenzoyl)-6-(3H-imidazo[4,5-b]pyridin-2-ylmethyl)-1,6-dihydro-7H-pyrrolo[2,3-c]pyridin-7-one]
7 | 0.024 | 0.253 | O=C(c1c(F)cc(F)cc1F)c1c[nH]c2c(=O)n(Cc3nc4ncc(Br)cc4[nH]3)ccc12 [Example 8, 6-[(6-bromo-3H-imidazo[4,5-b]pyridin-2-yl)methyl]-3-(2,4,6-trifluorobenzoyl)-1,6-dihydro-7H-pyrrolo[2,3-c]pyridin-7-one]
8 | 0.016 | 0.217 | Cc1ccc2nc(Cn3ccc4c(C(=O)c5c(F)cccc5F)c[nH]c4c3=O)cn2n1 [Example 9, 3-(2,6-difluorobenzoyl)-6-[(6-methylimidazo[1,2-b]pyridazin-2-yl)methyl]-1,6-dihydro-7H-pyrrolo[2,3-c]pyridin-7-one]
9 | 0.04 | 1.37 | O=C(c1c(F)cc(F)cc1F)c1c[nH]c2c(=O)n(Cc3nc4ccccc4o3)ccc12 [Example 10, 6-(1,3-benzoxazol-2-ylmethyl)-3-(2,4,6-trifluorobenzoyl)-1,6-dihydro-7H-pyrrolo[2,3-c]pyridin-7-one]
10 | 0.014 | 0.039 | Cc1cnc2nc(Cn3ccc4c(C(=O)c5c(F)cc(F)cc5F)c[nH]c4c3=O)[nH]c2c1 [Example 11, 6-[(6-methyl-3H-imidazo[4,5-b]pyridin-2-yl)methyl]-3-(2,4,6-trifluorobenzoyl)-1,6-dihydro-7 H-pyrrolo[2,3-c]pyridin-7-one]
11 | 0.025 | 0.142 | Cc1cnc2nc(Cn3ccc4c(C(=O)c5c(F)cccc5F)c[nH]c4c3=O)[nH]c2c1 [Example 12, 3-(2,6-difluorobenzoyl)-6-[(6-methyl-3H-imidazo[4,5-b]pyridin-2-yl)methyl]-1,6-dihydro-7H-pyrrolo[2,3-c]pyridin-7-one]
12 | 0.029 | 1.52 | O=C(c1c(F)cncc1F)c1c[nH]c2c(=O)n(Cc3cc4ccccn4n3)ccc12 [Example 13, 3-(3,5-difluoroisonicotinoyl)-6-(pyrazolo[1,5-c]pyridin-2-ylmethyl)-1,6-dihydro-7H-pyrrolo[2,3-c]pyridin-7-one]
13 | 0.022 | 0.486 | Cc1cc(F)c(C(=O)c2c[nH]c3c(=O)n(Cc4cc5ccccn5n4)ccc23)c(F)c1 [Example 14, 3-(2,6-difluoro-4-methylbenzoyl)-6-(pyrazolo[1,5-a]pyridin-2-ylmethyl)-1,6-dihydro-7H-pyrrolo[2,3-c]pyridin-7-one]
14 | 0.0086 | 0.103 | O=C(NCC(F)(F)F)c1cnc2nc(Cn3ccc4c(C(=O)c5c(F)cc(F)cc5F)c[nH]c4c3=O)[nH]c2c1 [Example 15, 2-{[7-oxo-3-(2,4,6-trifluorobenzoyl)-1,7-dihydro-6H-pyrrolo[2,3-c]pyridin-6-yl]methyl}-N-(2,2,2-trifluoroethyl)-3H-imidazo[4,5-b]pyridine-6-carboxamide]
15 | 0.019 | 0.217 | O=C(c1c(F)cc(F)cc1F)c1c[nH]c2c(=O)n(Cc3nc4ncc(C(=O)N5CCOCC5)cc4[nH]3)ccc12 [Example 16, 6-{[6-(morpholin-4-ylcarbonyl)-1H-imidazo[4,5-b]pyridin-2-yl]methyl}-3-(2,4,6-trifluorobenzoyl)-1,6-dihydro-7H-pyrrolo[2,3-c]pyridin-7-one]
16 | 0.013 | – | O=C(c1c(F)cc(F)cc1F)c1c[nH]c2c(=O)n(Cc3nc4ccncc4[nH]3)ccc12 [Example 17, 6-(3H-imidazo[4,5-c]pyridin-2-ylmethyl)-3-(2,4,6-trifluorobenzoyl)-1,6-dihydro-7H-pyrrolo[2,3-c]pyridin-7-one]
17 | 0.012 | 0.201 | O=C(c1c(F)cc(F)cc1F)c1c[nH]c2c(=O)n(Cc3cn4ccc(C(F)(F)F)cc4n3)ccc12 [Example 18, 3-(2,4,6-trifluorobenzoyl)-6-{[(7-trifluoromethyl)imidazo[1,2-c]pyridin-2-yl]methyl}-1,6-dihydro-7H-pyrrolo[2,3-c]pyridin-7-one]
18 | 0.031 | 0.365 | O=C(c1c(F)cc(F)cc1F)c1c[nH]c2c(=O)n(Cc3nc4cc(C(F)(F)F)cnc4[nH]3)ccc12 [Example 19, 3-(2,4,6-trifluorobenzoyl)-6-{[6-(trifluoromethyl)-3H-imidazo[4,5-b]pyridin-2-yl]methyl}-1,6-dihydro-7H-pyrrolo[2,3-c]pyridin-7-one]
19 | 0.018 | 0.162 | O=C(c1ccc(F)cc1F)c1c[nH]c2c(=O)n(Cc3cn4ccccc4n3)ccc12 [Example 20, 3-(2,4-difluorobenzoyl)-6-(imidazo[1,2-a]pyridin-2-ylmethyl)-1,6-dihydro-7H-pyrrolo[2,3-c]pyridin-7-one]
20 | 0.038 | 2.06 | O=C(c1c(F)cccc1F)c1c[nH]c2c(=O)n(Cc3nc4ncc(C(F)(F)F)cc4[nH]3)ccc12 [Example 21, 3-(2,6-difluorobenzoyl)-6-{[6-(trifluoromethyl)-3H-imidazo[4,5-b]pyridin-2-yl]methyl}-1,6-dihydro-7H-pyrrolo[2,3-c]pyridin-7-one]
21 | 0.0013 | – | NC(=O)c1ccn2cc(Cn3ccc4c(C(=O)c5c(F)cc(F)cc5F)c[nH]c4c3=O)nc2c1 [Example 22, 2-{[7-oxo-3-(2,4,6-trifluorobenzoyl)-1,7-dihydro-6H-pyrrolo[2,3-c]pyridin-6-yl]methyl}imidazo[1,2-a]pyridine-7-carboxamide]
22 | 0.002 | – | O=C(O)c1ccn2cc(Cn3ccc4c(C(=O)c5c(F)cc(F)cc5F)c[nH]c4c3=O)nc2c1 [Example 23, 2-{[7-oxo-3-(2,4,6-trifluorobenzoyl)-1,7-dihydro-6H-pyrrolo[2,3-c]pyridin-6-yl]methyl}imidazo[1,2-a]pyridine-7-carboxylic acid]
23 | 0.001 | – | CNC(=O)c1ccn2cc(Cn3ccc4c(C(=O)c5c(F)cc(F)cc5F)c[nH]c4c3=O)nc2c1 [Example 25, N-methyl-2-{[7-oxo-3-(2,4,6-trifluorobenzoyl)-1,7-dihydro-6H-pyrrolo-[2,3-c]pyridin-6-yl]methyl}-imidazo[1,2-c]pyridine-7-carboxamide]
24 | 0.003 | – | CNC(=O)c1ccc2nc(Cn3ccc4c(C(=O)c5c(F)cc(F)cc5F)c[nH]c4c3=O)[nH]c2c1 [Example 27, N-methyl-2-{[7-oxo-3-(2,4,6-trifluorobenzoyl)-1,7-dihydro-6H-pyrrolo[2,3-c]pyridin-6-yl]methyl}-1H-benzimidazole-5-carboxamide]
25 | 0.249 | – | O=c1c2[nH]cc(C(O)c3ccc(F)cc3F)c2ccn1Cc1cn2ccccc2n1 (centres unmarked) [Example 28, 3-[(2,4-difluorophenyl)(hydroxy)methyl]-6-(imidazo[1,2-a]pyridin-2-ylmethyl)-1,6-dihydro-7H-pyrrolo[2,3-c]pyridin-7-one]
